Reference: PubChem BioAssay (NCI)
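Growth conditions: 96-well plates. Treatment: test compound, 48 hours, 5 concentrations. Analysis: linear interpolation between bracketing concentrations; unreached endpoints set to highest concentration. TGI marks complete inhibition of growth.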

Assays:
Assay in all cases: NCI-60 cell line screen, 48 h
[1] = test system: MDA-MB-435
[2] = test system: NCI-H226 lung
[3] = test system: HOP-62 NSCLC
[4] = test system: SF-539 CNS
[5] = test system: PC-3 prostate
[6] = test system: U251 CNS
[7] = test system: SK-MEL-2 melanoma
[8] = test system: ACHN renal
[9] = test system: SF-295 CNS
[10] = test system: OVCAR-8 ovarian
[11] = test system: OVCAR-4 ovarian
[12] = test system: MCF7 breast
[13] = test system: COLO 205 colon
[14] = test system: DU-145 prostate
[15] = test system: HT29 colon
[16] = test system: A549 NSCLC
[17] = test system: HCC-2998 colon
[18] = test system: IGROV1 ovarian
[19] = test system: OVCAR-3 ovarian
[20] = test system: NCI-H460 lung
[21] = test system: UACC-257 melanoma
[22] = test system: SNB-19 CNS
[23] = test system: UO-31 renal
[24] = test system: OVCAR-5 ovarian
[25] = test system: HCT-15 colon
[26] = test system: BT-549 breast
[27] = test system: SK-MEL-5 melanoma
[28] = test system: T-47D breast
[29] = test system: MDA-MB-231 breast
[30] = test system: HOP-92 NSCLC
[31] = test system: NCI/ADR-RES ovarian
[32] = test system: CAKI-1 renal
[33] = test system: EKVX NSCLC
[34] = test system: LOX IMVI melanoma
[35] = test system: 786-0 renal
[36] = test system: TK-10 renal
[37] = test system: KM12 colon
[38] = test system: SK-MEL-28 melanoma
[39] = test system: SN12C renal
[40] = test system: MDA-N
[41] = test system: SK-OV-3 ovarian
[42] = test system: HCT-116 colon
[43] = test system: MOLT-4 leukemia
[44] = test system: SNB-75 CNS
[45] = test system: NCI-H23 lung
[46] = test system: M14 melanoma
[47] = test system: SW-620 colon
[48] = test system: UACC-62 melanoma
[49] = test system: MALME-3M melanoma
[50] = test system: A498 renal
[51] = test system: RXF 393 renal
[52] = test system: HL-60(TB) leukemia
[53] = test system: SR leukemia
[54] = test system: K-562 leukemia
[55] = test system: CCRF-CEM leukemia

Measured: TGI

O=C1NC(=O)/C(=C\c2ccncc2)N1
not listed: [48] | [49] | [50] | [51] | [52] | [53] | [54] | [55]
> 100 µM: all other assays above

CC(C)(C)OC(=O)NC(Cc1ccccc1)C(=O)N[C@H]1c2ccsc2/C(=N/O)[C@H]1O (some centres not stated)
not listed: [8] | [35] | [37] | [38] | [44]
> 100 µM: all other assays above
